Test results: patent US20240425500A1 (priority 2021, published 2024)

Legend:
[1] = system: Plasmopara viticola; assay: whole plant or invertebrate; assay type: in vivo; conditions: foliar, read-out: control of Plasmopara viticola compared to untreated control
[2] = system: Pythium ultimum; assay: Pythium ultimum / liquid culture (seedling damping off); assay type: cell-based; conditions: Globisporangium ultimum, liquid culture in PDB, 24 °C, 2-3 days after application, read-out: control of Pythium ultimum (inhibition of growth, photometric) compared to untreated control
Method in brief: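 Mycelia fragments and oospores from fresh liquid culture mixed into potato dextrose broth and added to compound in DMSO. Incubated at 24° C.; growth inhibition read photometrically 2–3 days after application.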

[3] = system: Phytophthora infestans; assay: whole plant or invertebrate; assay type: in vivo; conditions: in Solanum lycopersicum, foliar, read-out: control of Phytophthora infestans compared to untreated control

COC(=O)Nc1ccc(-c2cnc3ccc(C(=O)N(C)c4ccc(F)c(OC)c4)cn23)cc1 [Compound 158, methyl N-[4-[6-[(4-fluoro-3-methoxy-phenyl)-methyl-carbamoyl]imidazo[1,2-a]pyridin-3-yl]phenyl]carbamate]
≥ 80%: pest or weed control at 200 ppm [1] | inhibition at 20 ppm [2] | pest or weed control at 200 ppm [3]

COC(=O)Nc1ccc(-c2cnc3ccc(C(=O)N(c4ccc(Cl)cc4)C4CC4)cn23)cc1 [Compound 27, methyl N-[4-[6-[(4-chlorophenyl)-cyclopropyl-carbamoyl]imidazo[1,2-a]pyridin-3-yl]phenyl]carbamate]
≥ 80%: pest or weed control at 200 ppm [1] | inhibition at 20 ppm [2] | pest or weed control at 200 ppm [3]

COC(=O)Nc1ccc(-c2cnc3ccc(C(=O)N(C)c4ccnc(OC)c4)cn23)cc1 [Compound 26, methyl N-[4-[6-[(2-methoxy-4-pyridyl)-methyl-carbamoyl]imidazo[1,2-a]pyridin-3-yl]phenyl]carbamate]
≥ 80%: pest or weed control at 200 ppm [1] | inhibition at 20 ppm [2] | pest or weed control at 200 ppm [3]

COC(=O)Nc1ccc(-c2cnc3c(OC)cc(C(=O)N(C)c4ccc(F)cc4)cn23)cn1 [Compound 84, methyl N-[5-[6-[(4-fluorophenyl)-methyl-carbamoyl]-8-methoxy-imidazo[1,2-a]pyridin-3-yl]-2-pyridyl]carbamate]
≥ 80%: pest or weed control at 200 ppm [1] | inhibition at 20 ppm [2] | pest or weed control at 200 ppm [3]

COC(=O)Nc1ccc(-c2cnc3c(C)cc(C(=O)N(C)c4ccc(F)cc4)cn23)cn1 [Compound 82, methyl N-[5-[6-[(4-fluorophenyl)-methyl-carbamoyl]-8-methyl-imidazo[1,2-a]pyridin-3-yl]-2-pyridyl]carbamate]
≥ 80%: pest or weed control at 200 ppm [1] | inhibition at 20 ppm [2] | pest or weed control at 200 ppm [3]

COC(=O)Nc1ccc(-c2cnc3c(C)cc(C(=O)N(C)c4ccc(F)c(OC)c4)cn23)cn1 [Compound 95, methyl N-[5-[6-[(4-fluoro-3-methoxy-phenyl)-methyl-carbamoyl]-8-methyl-imidazo[1,2-a]pyridin-3-yl]-2-pyridyl]carbamate]
≥ 80%: pest or weed control at 200 ppm [1] | inhibition at 20 ppm [2] | pest or weed control at 200 ppm [3]

COC(=O)Nc1ccc(-c2cnc3ccc(C(=O)N(C)c4ccc(C#N)c(C)c4)cn23)cn1 [Compound 53, methyl N-[5-[6-[(4-cyano-3-methyl-phenyl)-methyl-carbamoyl]imidazo[1,2-a]pyridin-3-yl]-2-pyridyl]carbamate]
≥ 80%: pest or weed control at 200 ppm [1] | inhibition at 20 ppm [2] | pest or weed control at 200 ppm [3]

COC(=O)Nc1ccc(-c2cnc3ccc(C(=O)N(C)c4cccc(OC)c4)cn23)cc1 [Compound 7, methyl N-[4-[6-[(3-methoxyphenyl)-methyl-carbamoyl]imidazo[1,2-a]pyridin-3-yl]phenyl]carbamate]
≥ 80%: pest or weed control at 200 ppm [1] | inhibition at 20 ppm [2] | pest or weed control at 200 ppm [3]

COC(=O)Nc1ccc(-c2cnc3ccc(C(=O)N(C)c4ccc(F)cc4)cn23)cc1 [Compound 11, methyl N-[4-[6-[(4-fluorophenyl)-methyl-carbamoyl]imidazo[1,2-a]pyridin-3-yl]phenyl]carbamate]
≥ 80%: pest or weed control at 200 ppm [1] | inhibition at 20 ppm [2] | pest or weed control at 200 ppm [3]

COC(=O)Nc1ccc(-c2cnc3c(Cl)cc(C(=O)N(C)c4ccc(F)cc4)cn23)cn1 [Compound 85, methyl N-[5-[8-chloro-6-[(4-fluorophenyl)-methyl-carbamoyl]imidazo[1,2-a]pyridin-3-yl]-2-pyridyl]carbamate]
≥ 80%: pest or weed control at 200 ppm [1] | inhibition at 20 ppm [2] | pest or weed control at 200 ppm [3]

COCc1cc(C(=O)N(C)c2ccc(F)cc2)cn2c(-c3ccc(NC(=O)OC)nc3)cnc12 [Compound 172, methyl N-[5-[6-[(4-fluorophenyl)-methyl-carbamoyl]-8-(methoxymethyl)imidazo[1,2-a]pyridin-3-yl]-2-pyridyl]carbamate]
≥ 80%: pest or weed control at 200 ppm [1] | inhibition at 20 ppm [2] | pest or weed control at 200 ppm [3]

CCN(C(=O)c1ccc2ncc(-c3ccc(NC(=O)OC)nc3)n2c1)c1cccc(OC)c1 [Compound 124, methyl N-[5-[6-[ethyl-(3-methoxyphenyl)carbamoyl]imidazo[1,2-a]pyridin-3-yl]-2-pyridyl]carbamate]
≥ 80%: pest or weed control at 200 ppm [1] | inhibition at 20 ppm [2] | pest or weed control at 200 ppm [3]

COC(=O)Nc1ccc(-c2cnc3c(NC(C)=O)cc(C(=O)N(C)c4ccc(F)cc4)cn23)cn1 [Compound 100, methyl N-[5-[8-acetamido-6-[(4-fluorophenyl)-methyl-carbamoyl]imidazo[1,2-a]pyridin-3-yl]-2-pyridyl]carbamate]
≥ 80%: pest or weed control at 200 ppm [1] | inhibition at 20 ppm [2] | pest or weed control at 200 ppm [3]

COC(=O)Nc1ccc(-c2cnc3ccc(C(=O)N(C)c4ccnc(OC)c4)cn23)cn1 [Compound 70, methyl N-[5-[6-[(2-methoxy-4-pyridyl)-methyl-carbamoyl]imidazo[1,2-a]pyridin-3-yl]-2-pyridyl]carbamate]
≥ 80%: pest or weed control at 200 ppm [1] | inhibition at 20 ppm [2] | pest or weed control at 200 ppm [3]

COC(=O)Nc1ccc(-c2cnc3ccc(C(=O)N(C)c4ccc(C#N)c(Cl)c4)cn23)cn1 [Compound 107, methyl N-[5-[6-[(3-chloro-4-cyano-phenyl)-methyl-carbamoyl]imidazo[1,2-a]pyridin-3-yl]-2-pyridyl]carbamate]
≥ 80%: pest or weed control at 200 ppm [1] | inhibition at 20 ppm [2] | pest or weed control at 200 ppm [3]

COCN(C(=O)c1cc(C)c2ncc(-c3ccc(NC(=O)OC)nc3)n2c1)c1ccc(F)c(OC)c1 [Compound 94, methyl N-[5-[6-[(4-fluoro-3-methoxy-phenyl)-(methoxymethyl)carbamoyl]-8-methyl-imidazo[1,2-a]pyridin-3-yl]-2-pyridyl]carbamate]
≥ 80%: pest or weed control at 200 ppm [1] | inhibition at 20 ppm [2] | pest or weed control at 200 ppm [3]

CCc1cc(C(=O)N(C)c2ccc(F)cc2)cn2c(-c3ccc(NC(=O)OC)nc3)cnc12 [Compound 170, methyl N-[5-[8-ethyl-6-[(4-fluorophenyl)-methyl-carbamoyl]imidazo[1,2-a]pyridin-3-yl]-2-pyridyl]carbamate]
≥ 80%: pest or weed control at 200 ppm [1] | inhibition at 20 ppm [2] | pest or weed control at 200 ppm [3]

COC(=O)Nc1ccc(-c2cnc3c(Br)cc(C(=O)N(C)c4ccc(F)cc4)cn23)cn1 [Compound 98, methyl N-[5-[8-bromo-6-[(4-fluorophenyl)-methyl-carbamoyl]imidazo[1,2-a]pyridin-3-yl]-2-pyridyl]carbamate]
≥ 80%: pest or weed control at 200 ppm [1] | inhibition at 20 ppm [2] | pest or weed control at 200 ppm [3]

COC(=O)Nc1ccc(-c2cnc3ccc(C(=O)N(C)c4cccc(C(F)F)c4)cn23)cn1 [Compound 57, methyl N-[5-[6-[[3-(difluoromethyl)phenyl]-methyl-carbamoyl]imidazo[1,2-a]pyridin-3-yl]-2-pyridyl]carbamate]
≥ 80%: pest or weed control at 200 ppm [1] | inhibition at 20 ppm [2] | pest or weed control at 200 ppm [3]

COC(=O)Nc1ccc(-c2cnc3ccc(C(=O)N(CC#N)c4ccc(F)c(OC)c4)cn23)cn1 [Compound 89, methyl N-[5-[6-[cyanomethyl-(4-fluoro-3-methoxy-phenyl)carbamoyl]imidazo [1,2-a]pyridin-3-yl]-2-pyridyl]carbamate]
≥ 80%: pest or weed control at 200 ppm [1] | inhibition at 20 ppm [2] | pest or weed control at 200 ppm [3]

COC(=O)Nc1ccc(-c2cnc3c(C)cc(C(=O)N(C)c4ccc(Cl)cc4)cn23)cc1 [Compound 19, methyl N-[4-[6-[(4-chlorophenyl)-methyl-carbamoyl]-8-methyl-imidazo[1,2-a]pyridin-3-yl]phenyl]carbamate]
≥ 80%: pest or weed control at 200 ppm [1] | inhibition at 20 ppm [2] | pest or weed control at 200 ppm [3]

COC(=O)Nc1ccc(-c2cnc3ccc(C(=S)N(C)c4ccc(F)cc4)cn23)cn1 [Compound 164, methyl N-[5-[6-[(4-fluorophenyl)-methyl-carbamothioyl]imidazo[1,2-a]pyridin-3-yl]-2-pyridyl]carbamate]
≥ 80%: pest or weed control at 200 ppm [1] | inhibition at 20 ppm [2] | pest or weed control at 200 ppm [3]

COC(=O)Nc1ccc(-c2cnc3ccc(C(=O)N(C)c4cccc(OC)c4)cn23)cn1 [Compound 63, methyl N-[5-[6-[(3-methoxyphenyl)-methyl-carbamoyl]imidazo[1,2-a]pyridin-3-yl]-2-pyridyl]carbamate]
≥ 80%: pest or weed control at 200 ppm [1] | inhibition at 20 ppm [2] | pest or weed control at 200 ppm [3]

COC(=O)Nc1ccc(-c2cnc3ccc(C(=O)N(C)c4ccc(C#N)cc4)cn23)cc1 [Compound 6, methyl N-[4-[6-[(4-cyanophenyl)-methyl-carbamoyl]imidazo[1,2-a]pyridin-3-yl]phenyl]carbamate]
≥ 80%: pest or weed control at 200 ppm [1] | inhibition at 20 ppm [2] | pest or weed control at 200 ppm [3]
